“Also recorded” adds a separate entry of the source.
How the values were obtained:
[1] = blood-brain barrier uptake / penetration; conditions: mice
[2] = target: μ opioid receptor (Homo sapiens, UniProt P35372); experiment: opioid receptor binding, μ receptor
[3] = helicity by circular dichroism; format: physicochemical
Protocol: Circular Dichroism. All of the circular dichroism experiments were carried out on Aviv Associates model 60DS using an Endcal Model RTE4DD water circulator as a temperature-control vehicle. The instrument was calibrated by using d-10-camphorsulphonic acid. The spectra were recorded between 200 and 250 nm by using the continuous mode with a 1.5 nm bandwidth, a three second response and a scan step of 0.5 nm in a cell with a path length of 0.1 cm. Three or five scans were accumulated and averaged for each spectrum. Glycopeptide stock solutions were prepared by weighing the required amount, using Cahn/Ventron Instruments Model 21 automatic analytical electrobalance, to make 1 mL of a 0.5-1.0 mM solution and the pH was adjusted to the desired value. Samples were prepared by diluting the stock solution to 70-80 μM. All observed spectra were baseline-subtracted and smoothed by adjacent average of 5 points using Microcal Origin Ver. 5.0 software (Microcal Software Inc, USA). The molar ellipticities were determined using the formula [θ]=[θ]obs·(MRW)/10·l·C, where [θ]obs observed ellipticity in millidegrees, MRW is the mean residue weight, l is the cell path length in centimeters and C is the glycopeptide concentration in mg/mL. The percent α-helicity was determined by using the formula % helix=[θ]n→π*/−40,000 (1−2.5/n)·100, where n represents the number of amide bonds (including the C-terminal amide) in the glycopeptide and [θ]n→π** is molar ellipticity of n→π* transition band at 222 nm.^55
Conformational Analysis by CD. Circular dichroism (CD) is a powerful and simple tool for identifying secondary structure in both peptides and proteins.^64 All the peptides were subjected to CD analysis in H2O, TFE-H2O mixtures, SDS micelles and phospholipid bicelles. In H2O, a negative band near 200 nm is observed that arises from the π→π* electronic transition and is typical of random coil peptides. […] This behavior is explained as nascent helices.^65 In these nascent helices, helix CD signals could be induced by the addition of TFE.^66 All the glycopeptides gave an increased helix CD signal in TFE. The percentage of helicity increases as TFE concentration increases, but reached a maximum at 30% TFE. The increase in helicity in TFE can be attributed to decreased competition by H2O for hydrogen bonding to the backbone amides. […] In the presence of SDS micelles and anionic bicelles, the band at 200 nm underwent a red shift (higher value) and an additional shoulder appears around 222 nm as a result of the n→π* transition. […] The negative maxima at 222 nm (n→π* transition band) is used to calculate the helical content of polypeptides and proteins. The accepted value for a peptide that is 100% helical is approximately −35,000. It was observed that changes in amplitude of the bands up to 30% depend on length of helix.^67 The amplitude increases as α-helical chain length increases. Therefore, one has to consider the importance of chain-length dependence of the α-helix CD in the quantitative treatment of helix content in proteins and polypeptides. The percentage of helicity is independent of SDS concentration and pH (data not shown). In the presence of zwitterionic bicelles all of the glycopeptides yielded CD spectra similar to that observed in H2O, but anionic bicelles forced them to become more helical. The intensities of the [θ]π→π* band and the [θ]n→π* band are expected to be almost equal for a perfect α-helical peptide. […] A modest blue shift and reduced intensity for the [θ]n→π* transition bands are observed for all the glycopeptides in TFE. […] The glycopeptides 9 (Pro/Glc) and 12 (Pro/Lactose), which differ only by the sugar moiety attached, adopt perfect helices in the presence of SDS micelles and in anionic bicelles. The disaccharide increased the percentage of helicity in all the solvents, relative to the monosaccharide. […] It is remarkable to note that a single amino acid mutation at position 6 produced profound changes in the CD spectra. […]

[4] = Plasmon-waveguide resonance (PWR) binding to lipid bilayer; conditions: egg PC bilayer, 25° C., read-out: dissociation constant KD for lipid bilayer
Protocol: Plasmon-waveguide resonance (PWR) spectroscopy. The PWR instrument used for these experiments was Aviv Beta prototype version device obtained from Proterion Corp. (Piscataway, N.J.) having a spectral resolution of 1 millidegree. Self-assembled so lid-supported lipid membranes were prepared according to the method used for the formation of freely suspended lipid bilayers.^62 This involves spreading a small amount of lipid solution across an orifice in a Teflon sheet that separates the thin dielectric film (SiO2) from the aqueous phase. The hydrophilic surface of hydrated SiO2 attracts the polar groups of the lipid molecules, thus inducing an initial orientation of the lipid molecules, with the hydrocarbon chains pointing toward the droplet of excess lipid solution. The next steps of bilayer formation, induced by adding aqueous buffer to the sample compartment of the PWR cell, involve a thinning process and the formation of a plateau-Gibbs border of lipid solution that anchors the membrane to the Teflon spacer. In the present experiments, the lipid films were formed from a solution containing 5 mg/ml egg phosphatidylcholine (PC) in squalene/butanol/methanol (0.05:9.5:0.5, v/v). […] Aliquots of the glycosylated peptides, dissolved in deionized water, were injected stepwise in the PWR cell sample and the signal monitored until equilibrium was reached (PWR signal steady). […]

[5] = target: δ opioid receptor (Homo sapiens, UniProt P41143); experiment: opioid receptor binding, δ receptor
Chain of δ opioid receptor (P41143 whole entry): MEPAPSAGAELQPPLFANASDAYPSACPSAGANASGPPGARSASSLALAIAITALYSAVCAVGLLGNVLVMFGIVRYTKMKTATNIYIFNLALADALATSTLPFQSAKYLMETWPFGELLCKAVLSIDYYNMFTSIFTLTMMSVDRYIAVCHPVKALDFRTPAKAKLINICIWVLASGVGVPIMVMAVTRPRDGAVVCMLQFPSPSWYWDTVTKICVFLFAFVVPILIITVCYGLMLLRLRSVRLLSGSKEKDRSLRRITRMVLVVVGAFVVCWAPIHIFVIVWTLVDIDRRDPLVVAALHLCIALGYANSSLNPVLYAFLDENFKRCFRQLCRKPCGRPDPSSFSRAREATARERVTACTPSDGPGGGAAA

[6] = in vivo antinociception after i.c.v. administration; set-up: species or system mice; conditions: i.c.v., mice, antinociception
[7] = helicity by NMR αCH chemical shift index; format: physicochemical
Protocol: NMR Spectroscopy. All NMR spectra were recorded on a Bruker DRX600 600 MHz spectrometer. Glycopeptide concentration for the NMR experiments varied from 2-3 mM. The glycopeptides were prepared in TFE-water solution by dissolving the peptide in 0.6 ml solution of a premixed 30% TFE-water mixture. The micelle samples were prepared by dissolving the glycopeptide and 100 equivalent of perdeuterated SDS in 0.6 ml of H2O/D2O (9:1 ratio by volume). Bicelles were produced from deuterated phospholipids. The zwitterionic bicelles were made by mixing the short chain phospholipid dihexanoyl-sn-glycero-3-phosphatidylcholine-d22 (DHPC) and the long chain 1,2-dimyristoyl-sn-glycero-3-phosphatidylcholine-d54 (DMPC) in the molar ratio of 2:1 in H2O. The […] were prepared by substituting 10 mol % of 1,2-dimyristoyl-sn-glycero-3-phospho-1-glycerol-d54 (DMPG) for DMPC. The glycopeptide to bicelle ratio was 1:25. After the glycopeptide was added to the bicelle solution, the system was submitted to a series o f three freeze/thaw/slight vortex shaking cycles. The pH of the each sample was adjusted to 4.5 by using DCl or NaOD as necessary. TSP (3-(trimethylsilyl)-d4-propionic acid) was added as an internal standard. The experiments in F3CCD2OD/H2O mixtures were at 293 K and for experiments in micelles/bicelles were at 298 or 311 K. Two-dimensional double quantum filtered correlation (DQF-COSY), rotating-frame Overhauser enhancement^56 (ROESY), Nuclear Overhauser enhancement^57 (NOESY), and total correlation spectra^58 (TOCSY) were acquired using standard pulse sequences and processed using XWINNMR (Bruker Inc) and FELIX2000 (Accelrys Inc, San Diego, Calif.), Mixing times for TOCSY spectra were either 80 or 100 ms. Mixing times for ROESY spectra were 150 or 250 ms, and for NOESY spectra were 200 or 300 ms. All experiments were 750 increments in t1, 16/32/64 scans each, 1.5 s relaxation delay, size 2 or 4K, and the spectral processing was with shifted sine bell window multiplications in both dimensions.
αCH Chemical Shift Index. […] At this point there is no accepted random coil αCH values for glycosylated serine, CSI values for this position are uncertain. The conformational shift values for all solvents were obtained using the random coil values described by Wright and co-workers.^72 Although, these reference shifts were obtained at pH=5.0 at 4.2° C., they appear to be very insensitive to the conditions, as very small deviations (±0.04) were observed when random coil values are obtained at pH=7.0 at 35° C. by Wuthrich and co-workers.^68 The quantification of secondary structure based on αCH chemical shifts is neglected in the literature because various contributions cannot be strictly accounted for, such as electrostatic effects, ring current shifts, and other magnetic anisotropies. However, it is possible to make qualitative comparison of helical content between closely related (glyco)peptides. Since the 3rd generation glycopeptides differ by only one amino acid at position 6, the helical content was obtained based on the αCH chemical shift values (Table 3). The method described by Gierasch and co-workers^69a was used. First, the average conformational shift was calculated for each glycopeptide by adding all upfield shifts in the helical regions and dividing by the total number of peptide bonds. Then, to obtain the overall helical content for each glycopeptide, the average conformational shift was divided by 0.35 ppm, which was assigned for 100% helicity. Since, there are no random coil values available for β-Alanine and glycosylated serine residues, they were not included in the calculation. The helicogenic Aib residue lacks an α-proton, and there was no correction included in the calculation for the helicity provided by Aib residue. The helical content obtained by this method correlated with the helical content obtained by CD. […]

Chain of μ opioid receptor (P35372 whole entry): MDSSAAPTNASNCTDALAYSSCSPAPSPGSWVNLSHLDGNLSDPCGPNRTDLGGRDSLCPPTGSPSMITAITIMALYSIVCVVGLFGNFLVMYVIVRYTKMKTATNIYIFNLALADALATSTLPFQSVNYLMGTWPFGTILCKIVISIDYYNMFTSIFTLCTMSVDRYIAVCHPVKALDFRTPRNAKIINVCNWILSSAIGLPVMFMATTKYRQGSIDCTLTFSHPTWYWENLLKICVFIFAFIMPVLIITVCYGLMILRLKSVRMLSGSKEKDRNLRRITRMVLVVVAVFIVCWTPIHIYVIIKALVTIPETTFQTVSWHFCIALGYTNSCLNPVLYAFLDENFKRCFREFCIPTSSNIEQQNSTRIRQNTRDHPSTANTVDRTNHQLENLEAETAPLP

SMILES: CC(C)C[C@H](NC(=O)[C@H](CO[C@@H]1O[C@H](CO)[C@@H](O)[C@H](O)[C@H]1O)NC(=O)[C@H](CCCCN)NC(=O)[C@H](CC(C)C)NC(=O)[C@H](C)NC(=O)[C@H](CCCCN)NC(=O)[C@H](CCC(=O)O)NC(=O)C(C)(C)NC(=O)[C@H](CC(C)C)NC(=O)[C@H](CC(N)=O)NC(=O)[C@@H]1CCCN1C(=O)[C@H](CC(C)C)NC(=O)[C@H](Cc1ccccc1)NC(=O)CNC(=O)[C@H](NC(=O)[C@@H](N)Cc1ccc(O)cc1)[C@H](C)O)C(N)=O (relative stereo) [Glycopeptide 9, YtGFLPNLBEKALKS*L]
- BBB uptake [1]: 0.390 microliters per min per gram of cortex
- blood brain barrier penetration (in words) [1]: efficiently cross the blood brain barrier; also recorded: much better BBB penetration rates; also recorded: best BBB penetration
- IC50 [2]: 90.8 nM
- % α-helicity by CD ([3]; solvent Bicelle A (anionic bicelles)): 25%
- % α-helicity by CD ([3]; solvent H2O): >1%
- % α-helicity by CD ([3]; solvent SDS micelles): 24%
- % α-helicity by CD ([3]; solvent TFE): 18%
- Kd [4]: 7 to 8 nM
- IC50 [5]: 6.15 nM
- A50 i.c.v. [6]: 0.030 nmol
- % α-helicity by NMR ([7]; solvent Bicelle A): 44%
- % α-helicity by NMR ([7]; solvent H2O): 20%
- % α-helicity by NMR ([7]; solvent SDS micelles): 46%
- % α-helicity by NMR ([7]; solvent TFE): 30%
